{"source": "patent US8580309B2", "about": "“Antimicrobial mixtures” (priority 2006, dated 2013)", "key": {"[1]": {"tested_on": "Staphylococcus aureus NCTC 6571", "assay": "Lethal photosensitisation of S. aureus by gold nanoparticle-photosensitiser mixtures under white light, viable counting", "format": "cell-based", "details": "preliminary experiments, 30 minutes light exposure", "description": "Gold nanoparticles (2.0 nm diameter; British Biocell International) in water (15×10^13 particles per ml) were mixed with an equal volume of an aqueous solution of toluidine blue O (40 μM) and left at room temperature for 15 minutes. 100 μl of the gold-TB solution was added to 100 μl of a suspension of Staphylococcus aureus NCTC 6571 in phosphate buffered saline (PBS) and this was irradiated with white light from a fluorescent white lamp for 10 minutes. Controls consisted of:\n(i) TB (final concentration=10 μM) and bacteria, irradiated for the same period of time,\n(ii) nanogold (diluted 1:1 with water) and bacteria, irradiated for the same period of time,\n(iii) bacteria without TB or nanogold, not irradiated (“control”).\nAfter irradiation, the number of surviving bacteria was determined by viable counting. […] Note that the TB concentration and light energy dose used were designed to give sub-optimal kills so that differences in efficacy of the TB and the TB-nanogold could be discerned. Preliminary experiments using 30 minutes light exposure achieved total kills of the bacterial suspensions in both cases.\nGold nanoparticles of approximately 15 nm in diameter (batches NN1 and NN2 above) were mixed with an equal volume of aqueous toluidine blue O (TB) and left at room temperature for 15 minutes. TB was used at a final concentration of 1, 5, 10, 20 or 50 μM. […]"}, "[2]": {"tested_on": "Staphylococcus aureus NCTC 6571", "assay": "Lethal photosensitisation of S. aureus by TBO-tiopronin-gold nanoparticle conjugate, white light, viable counting", "format": "cell-based", "details": "irradiated with white light for any length of time (15, 30, 45 minutes)"}}, "data": [{"compound": "Cc1cc2nc3ccc(N(C)C)cc3[s+]c2cc1N.[Cl-]", "note": "[TB only, toluidine blue O]", "values": [{"measurement": "kill of the bacterial suspensions (in words)", "setting": "[1]", "value": "total kills"}, {"measurement": "antibacterial effect (in words)", "setting": "[2]", "value": "no effect"}]}]}
